The record followed here is patent US20240239790A1, “7-Morpholino-1,6-Naphthyridin-5-yl Derivatives and Pharmaceutical Compositions Thereof Useful as DNA-PK Inhibitor” (adMare Therapeutics Society, priority 2021, published 2024).

Molecules are shown by their SMILES. Read-outs that look alike come from different tables or passages of the source.

In data set [1] the target is T1, DNA-PK phosphorylation at Serine 2056 (Homo sapiens, UniProt P78527).
T1 construct: FaDu cells were purchased from ATCC; host or cells: FaDu
The data set can be described thus: Cellular Assay for Inhibition of DNA-PK Phosphorylation at Serine 2056 in FaDu cells (sandwich ELISA, neocarzinostatin). The class given is cell-based. As to conditions: pSer2056 DNA-PK, Table 3. The method, boiled down:
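FaDu cells pre-treated with compound (0.3% DMSO) for 1 h, then neocarzinostatin 1 μg/mL final added for 2 h to induce DSBs. Protein-normalised lysates read by sandwich ELISA for total and pSer2056 DNA-PK; % inhibition normalised between DMSO and NCS controls, IC50 from variable-slope log(inhibitor) fit.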
For orientation: ELISA stands for enzyme-linked immunosorbent assay.

The test system of data set [2] is pH2AX induction in HCT116 ATM-/- multicellular tumour spheroids. Nature of the data set: Prodrug Radiation Sensitization in Multicellular Tumour Spheroids, inhibition of pH2AX induction following radiation. The class given is cell-based. Particulars: Homo sapiens, HCT-116, 20 Gy. The method, boiled down:
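HCT116 and FaDu spheroids (~0.5 mm diameter), ATM-deficient lines included, in MEM/10% FBS/10 mM glucose at 37 °C under 20% vs 5% oxygen with stirring. Prodrugs 10 μM down to 3.5 nM, 20 Gy irradiation. pDNA-PK (ser 2056) or pH2AX (ser 139) scored in formalin-fixed cryosections 1 or 2 h post-radiation.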

For data set [3], the system named is FaDu cell line. Nature of the data set: Prodrug Activation in Hypoxic Stirred Tumour Cell Suspensions. As to conditions: 10 μM, 4 hours.
[4] abbreviates: 5% O2, inner layers, read-out: Prodrug 5% O2 Inner layers EC50.
Where [5] appears, read: 5% O2, outer layers, read-out: Prodrug 5% O2 Outer layers EC50.
The mark [6] stands for this setting: 20% O2, outer layers, read-out: Prodrug 20% O2 Outer layers EC50.

Usually IC50 stands for the point on the concentration scale where inhibition reaches its midpoint. Lower therefore signals inhibition by little substance. As a reminder, the EC50 is the concentration at which the effect is half-maximal. Molecule `CN1CCN(c2cnc(N[C@H]3CC[C@@H](Oc4nc(N5CCOCC5)cc5ncc(OCc6cnc([N+](=O)[O-])n6C)cc45)CC3)nc2)CC1` [LFA2065, N-[4-[[3-[(3-methyl-2-nitro-imidazol-4-yl)methoxy]-7-morpholino-1,6-naphthyridin-5-yl]oxy]cyclohexyl]-5-(4-methylpiperazin-1-yl)pyrimidin-2-amine] gave an IC50 in data set [1] of 10 to 30 µM. Besides, the concentration for a half-maximal effect (EC50) in data set [2] (setting [4]) fell in the range of 0.01 to 0.5 µM; in data set [2] (setting [5]) it was 1 to 10 µM; in data set [2] (setting [6]), 1 to 10 µM. Further, in data set [3], the “Fraction of prodrug converted to active form, Hypoxic 0.2% O2” value (from here on “Fraction … Hypoxic 0.2% O2”) is recorded as “A (A is 0.15 to 1)”. Besides, in data set [3], the “Fraction of prodrug converted to active form, Oxic 5% O2” value (“Fraction … Oxic 5% O2” for short) is on record as “C (C is 0.02 to 0.05)”.
`CC(Oc1cnc2cc(N3CCOCC3)nc(O[C@H]3CC[C@@H](Nc4ncc(N5CCN(C)CC5)cn4)CC3)c2c1)c1cnc([N+](=O)[O-])n1C` (stereo partly drawn) [LFA2066, N-[4-[[3-[1-(3-methyl-2-nitro-imidazol-4-yl)ethoxy]-7-morpholino-1,6-naphthyridin-5-yl]oxy]cyclohexyl]-5-(4-methylpiperazin-1-yl)pyrimidin-2-amine] returned a concentration for half-maximal inhibition (IC50) in data set [1] of 10 to 30 µM. Further, the EC50 lay in the range of 0.01 to 0.5 µM in data set [2] (setting [4]), 1 to 10 µM in data set [2] (setting [5]) and 1 to 10 µM in data set [2] (setting [6]). In addition, the “Fraction … Hypoxic 0.2% O2” value in data set [3] is reported as “A (A is 0.15 to 1)”. Further, the “Fraction … Oxic 5% O2” value in data set [3] was “B (B is 0.05 to 0.15)”.
Consider `CC(c1cnn(C)c1[N+](=O)[O-])N(c1cnc2cc(N3CCOCC3)nc(O[C@H]3CC[C@@H](Nc4ncc(N5CCN(C)CC5)cn4)CC3)c2c1)S(C)(=O)=O` (stereo partly drawn) [LFA2067, N-[1-(1-methyl-5-nitro-pyrazol-4-yl)ethyl]-N-[5-[4-[[5-(4-methylpiperazin-1-yl)pyrimidin-2-yl]amino]cyclohexoxy]-7-morpholino-1,6-naphthyridin-3-yl]methanesulfonamide], for which the IC50 in data set [1] was in the range of 1 to 10 µM. In addition, the half-maximal effective concentration (EC50) in data set [2] (setting [4]) is 0.01 to 0.5 µM; in data set [2] (setting [5]), 0.5 to 1 µM; in data set [2] (setting [6]), 1 to 10 µM. Further, the “Fraction … Hypoxic 0.2% O2” value in data set [3] is recorded as “B (B is 0.05 to 0.15)”. In data set [3], the “Fraction … Oxic 5% O2” value is recorded as “B (B is 0.05 to 0.15)”.
Regarding `CC(c1cnc([N+](=O)[O-])n1C)N(c1cnc2cc(N3CCOCC3)nc(O[C@H]3CC[C@@H](Nc4ncc(OC5CCN(C)C5)cn4)CC3)c2c1)S(C)(=O)=O` (stereo partly drawn) [LFA2068, N-[1-(3-methyl-2-nitro-imidazol-4-yl)ethyl]-N-[5-[4-[[5-(1-methylpyrrolidin-3-yl)oxypyrimidin-2-yl]amino]cyclohexoxy]-7-morpholino-1,6-naphthyridin-3-yl]methanesulfonamide], the 50% inhibitory concentration (IC50) in data set [1] was 1 to 10 µM. In addition, the 50% effective concentration (EC50) in data set [2] (setting [4]) fell in the range of 0.5 to 1 µM; in data set [2] (setting [5]), 1 to 10 µM; in data set [2] (setting [6]) it was 10 to 100 µM. Further, the “Fraction … Hypoxic 0.2% O2” value in data set [3] is on record as “B (B is 0.05 to 0.15)”. In addition, in data set [3], the “Fraction … Oxic 5% O2” value is reported as “D (D is 0 to 0.02)”.
Turning to `Cn1c(COc2cnc3cc(N4CCOCC4)nc(O[C@H]4CC[C@@H](Nc5ncc(OCCN6CCOCC6)cn5)CC4)c3c2)cnc1[N+](=O)[O-]` [LFA2069, N-[4-[[3-[(3-methyl-2-nitro-imidazol-4-yl)methoxy]-7-morpholino-1,6-naphthyridin-5-yl]oxy]cyclohexyl]-5-(2-morpholinoethoxy)pyrimidin-2-amine], the IC50 in data set [1] lay in the range of 10 to 30 µM. The concentration giving a half-maximal response (EC50) in data set [2] (setting [4]) lay in the range of 0.01 to 0.5 µM; in data set [2] (setting [5]), 1 to 10 µM; in data set [2] (setting [6]), 1 to 10 µM. In addition, in data set [3], the “Fraction … Hypoxic 0.2% O2” value is reported as “A (A is 0.15 to 1)”. In data set [3], the “Fraction … Oxic 5% O2” value is recorded as “C (C is 0.02 to 0.05)”.
As for `CC(c1cnc([N+](=O)[O-])n1C)N(c1cnc2cc(N3CCOCC3)nc(O[C@H]3CC[C@@H](Nc4ncc(N5CCN(C)CC5)cn4)CC3)c2c1)S(C)(=O)=O` (stereo partly drawn) [LFA2070, N-[1-(3-methyl-2-nitro-imidazol-4-yl)ethyl]-N-[5-[4-[[5-(4-methylpiperazin-1-yl)pyrimidin-2-yl]amino]cyclohexoxy]-7-morpholino-1,6-naphthyridin-3-yl]methanesulfonamide], the concentration for half-maximal inhibition (IC50) in data set [1] fell in the range of 10 to 30 µM. The EC50 in data set [2] (setting [4]) lay within 0.01 to 0.5 µM; in data set [2] (setting [5]) it was 1 to 10 µM; in data set [2] (setting [6]), 10 to 100 µM. The “Fraction … Hypoxic 0.2% O2” value in data set [3] was “B (B is 0.05 to 0.15)”. In addition, in data set [3], the “Fraction … Oxic 5% O2” value is listed as “D (D is 0 to 0.02)”.
In turn, `Cn1c(COc2cnc3cc(N4CCOCC4)nc(O[C@H]4CC[C@@H](N(C)c5ncccn5)CC4)c3c2)cnc1[N+](=O)[O-]` [LFA2071, N-methyl-N-[4-[[3-[(3-methyl-2-nitro-imidazol-4-yl)methoxy]-7-morpholino-1,6-naphthyridin-5-yl]oxy]cyclohexyl]pyrimidin-2-amine] came in with an IC50 in data set [1] of 10 to 30 µM. Moreover, the half-maximal effective concentration (EC50) lay within 0.01 to 0.5 µM in data set [2] (setting [4]), 1 to 10 µM in data set [2] (setting [5]) and 1 to 10 µM in data set [2] (setting [6]). Further, in data set [3], the “Fraction … Hypoxic 0.2% O2” value is reported as “A (A is 0.15 to 1)”. Besides, the “Fraction … Oxic 5% O2” value in data set [3] is recorded as “B (B is 0.05 to 0.15)”.
`CN1CCN(c2cnc(N[C@H]3CC[C@@H](Oc4nc(N5CCOCC5)cc5ncc(N(Cc6cnn(C)c6[N+](=O)[O-])S(C)(=O)=O)cc45)CC3)nc2)CC1` [LFA2072, N-[(1-methyl-5-nitro-pyrazol-4-yl)methyl]-N-[5-[4-[[5-(4-methylpiperazin-1-yl)pyrimidin-2-yl]amino]cyclohexoxy]-7-morpholino-1,6-naphthyridin-3-yl]methanesulfonamide]: in data set [1], the concentration for half-maximal inhibition (IC50) lay in the range of 1 to 10 µM. Besides, the EC50 in data set [2] (setting [4]) is 0.01 to 0.5 µM; in data set [2] (setting [5]), 0.01 to 0.5 µM; in data set [2] (setting [6]), 1 to 10 µM. Besides, the “Fraction … Hypoxic 0.2% O2” value in data set [3] is given as “B (B is 0.05 to 0.15)”. The “Fraction … Oxic 5% O2” value in data set [3] was “B (B is 0.05 to 0.15)”.
As for `CC(c1cnn(C)c1[N+](=O)[O-])N(c1cnc2cc(N3CCOCC3)nc(O[C@H]3CC[C@@H](Nc4ncc(OCCN(C)C)cn4)CC3)c2c1)S(C)(=O)=O` (stereo partly drawn) [LFA2073, N-[5-[4-[[5-[2-(dimethylamino)ethoxy]pyrimidin-2-yl]amino]cyclohexoxy]-7-morpholino-1,6-naphthyridin-3-yl]-N-[1-(1-methyl-5-nitro-pyrazol-4-yl)ethyl]methanesulfonamide], the IC50 in data set [1] lay in the range of 1 to 10 µM. Moreover, the half-maximal effective concentration (EC50) in data set [2] (setting [4]) was 0.01 to 0.5 µM; in data set [2] (setting [5]), 1 to 10 µM; in data set [2] (setting [6]), 1 to 10 µM. In addition, the “Fraction … Hypoxic 0.2% O2” value in data set [3] was “B (B is 0.05 to 0.15)”. In addition, the “Fraction … Oxic 5% O2” value in data set [3] was “C (C is 0.02 to 0.05)”.
For the molecule `CC(c1cnc([N+](=O)[O-])n1C)N(c1cnc2cc(N3CCOCC3)nc(O[C@H]3CC[C@@H](Nc4ncc(CCN5CCOCC5)cn4)CC3)c2c1)S(C)(=O)=O` (stereo partly drawn) [LFA2074, N-[1-(3-methyl-2-nitro-imidazol-4-yl)ethyl]-N-[7-morpholino-5-[4-[[5-(2-morpholinoethyl)pyrimidin-2-yl]amino]cyclohexoxy]-1,6-naphthyridin-3-yl]methanesulfonamide], the IC50 in data set [1] fell in the range of 1 to 10 µM. Further, the EC50 in data set [2] (setting [4]) lay in the range of 0.01 to 0.5 µM; in data set [2] (setting [5]) it was 0.5 to 1 µM; in data set [2] (setting [6]), 1 to 10 µM. For the same molecule, the “Fraction … Hypoxic 0.2% O2” value in data set [3] is “B (B is 0.05 to 0.15)”. The “Fraction … Oxic 5% O2” value in data set [3] is “C (C is 0.02 to 0.05)”.
As for `CN(C)CCOc1cnc(N[C@H]2CC[C@@H](Oc3nc(N4CCOCC4)cc4ncc(N(Cc5cnn(C)c5[N+](=O)[O-])S(C)(=O)=O)cc34)CC2)nc1` [LFA2075, N-[5-[4-[[5-[2-(dimethylamino)ethoxy]pyrimidin-2-yl]amino]cyclohexoxy]-7-morpholino-1,6-naphthyridin-3-yl]-N-[(1-methyl-5-nitro-pyrazol-4-yl)methyl]methanesulfonamide], in data set [1], the IC50 fell in the range of 1 to 10 µM. The figures for the concentration for a half-maximal effect (EC50) in data set [2] (setting [4]), in data set [2] (setting [5]) and in data set [2] (setting [6]) were 0.01 to 0.5 µM, 0.5 to 1 µM and 1 to 10 µM, respectively. The “Fraction … Hypoxic 0.2% O2” value in data set [3] is on record as “B (B is 0.05 to 0.15)”. Moreover, the “Fraction … Oxic 5% O2” value in data set [3] is “B (B is 0.05 to 0.15)”.
Regarding `Cn1ncc(CN(c2cnc3cc(N4CCOCC4)nc(O[C@H]4CC[C@@H](Nc5ncc(OCCN6CCOCC6)cn5)CC4)c3c2)S(C)(=O)=O)c1[N+](=O)[O-]` [LFA2076, N-[(1-methyl-5-nitro-pyrazol-4-yl)methyl]-N-[7-morpholino-5-[4-[[5-(2-morpholinoethoxy)pyrimidin-2-yl]amino]cyclohexoxy]-1,6-naphthyridin-3-yl]methanesulfonamide], the IC50 in data set [1] was 1 to 10 µM. Also, the concentration for a half-maximal effect (EC50) in data set [2] (setting [4]), in data set [2] (setting [5]) and in data set [2] (setting [6]) was 0.01 to 0.5 µM throughout. Also, the “Fraction … Hypoxic 0.2% O2” value in data set [3] is “B (B is 0.05 to 0.15)”. Moreover, in data set [3], the “Fraction … Oxic 5% O2” value is listed as “B (B is 0.05 to 0.15)”.
